# Results from patent US8802597B2, “Herbicidal pyrimidines” (E I du Pont de Nemours and Company, priority 2003, dated 2014).
# Legend:
# Format in all cases: in vivo
# [1] = system: corn (Zea mays); assay: Test C pre/postemergence; details: Postemergence
# Method in brief: (§1)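 We sprayed seeded pots preemergence and 2–18 cm seedlings postemergence with test chemicals in a non-phytotoxic solvent mixture including surfactant. Greenhouse plants were visually compared with untreated controls at 12 to 14 days and scored 0 (no effect) to 100 (complete control).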
# [2] = system: chickweed (Stellaria media); assay: Test C postemergence
# Method in brief: as §1
# [3] = system: barnyardgrass (Echinochloa crus-galli); assay: Test E flooded paddy water application; details: Flood, 21 days, scale 0 to 100 (0 no effect, 100 complete control); for Plant response rating, Barnyardgrass: 16 g ai/ha
# Method in brief: (§2)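 Response scored visually on a 0–100 scale (100 = complete control) at 21 days against untreated pots. Treatment was into paddy water 3 cm deep over silt loam, with plants at the 2.0–2.5-leaf stage, grown under 16-h light at 29.5/26.7 °C day/night.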
# [4] = system: bearded (brdd.) sprangletop (Leptochloa fusca ssp. fascicularis); assay: Test E flooded paddy water application; details: Flood, 21 days, scale 0 to 100 (0 no effect, 100 complete control)
# Method in brief: as §2
# [5] = system: ducksalad (Heteranthera limosa); assay: Test E flooded paddy water application; details: Flood, 21 days, scale 0 to 100 (0 no effect, 100 complete control); for Plant response rating, Ducksalad: 16 g ai/ha
# Method in brief: as §2
# [6] = system: early watergrass (Echinochloa oryzoides); assay: Test E flooded paddy water application; details: Flood, 21 days, scale 0 to 100 (0 no effect, 100 complete control)
# Method in brief: as §2
# [7] = system: junglerice (Echinochloa colona); assay: Test E flooded paddy water application; details: Flood, 21 days, scale 0 to 100 (0 no effect, 100 complete control)
# Method in brief: as §2
# [8] = system: purple redstem (Ammannia coccinea); assay: Test E flooded paddy water application; details: Flood, 21 days, scale 0 to 100 (0 no effect, 100 complete control)
# Method in brief: as §2
# [9] = system: rice flatsedge (Cyperus iria); assay: Test E flooded paddy water application; details: Flood, 21 days, scale 0 to 100 (0 no effect, 100 complete control)
# Method in brief: as §2
# [10] = system: transplanted rice seedlings (Oryza sativa cv. ‘Japonica-M202’); assay: Test E flooded paddy water application; details: Flood, 21 days, scale 0 to 100 (0 no effect, 100 complete control)
# Method in brief: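 Greenhouse pots of Tama silt loam with weeds and rice at 2.0–2.5-leaf stage, flooded to 3 cm; compounds applied directly into paddy water, depth maintained. Visual rating versus untreated controls after 21 days, 0 (no effect) to 100 (complete control); 29.5/26.7 °C, 16-h photoperiod.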
# [11] = system: water seeded rice seedlings (Oryza sativa cv. ‘Japonica-M202’); assay: Test E flooded paddy water application; details: Flood, 21 days, scale 0 to 100 (0 no effect, 100 complete control)
# Method in brief: as §2
# [12] = 125 g ai/ha, scale 0 to 100 (0 no effect, 100 complete control)
smiles,measurement,setting,value
"CCOC(=O)c1nc(-c2ccc(Br)cc2)nc(N)c1Cl [Compound 94, ethyl 6-amino-2-(4-bromophenyl)-5-chloro-4-pyrimidinecarboxylate]","Corn plant response rating (crop injury, 0 = no effect, 100 = complete kill) at 16 g/ha","[1]; Zea mays, post-emergence, 16 g ai/ha, read-out: Plant response rating (scale of 0 to 100), Corn",10%
same,"Corn plant response rating (crop injury, 0 = no effect, 100 = complete kill) at 31 g/ha","[1]; Zea mays, post-emergence, 31 g ai/ha, read-out: Plant response rating (scale of 0 to 100), Corn",35%
same,"Corn plant response rating (crop injury, 0 = no effect, 100 = complete kill) at 62 g/ha","[1]; Zea mays, post-emergence, 62 g ai/ha, read-out: Plant response rating (scale of 0 to 100), Corn",35%
same,"Corn plant response rating (crop injury, 0 = no effect, 100 = complete kill) at 125 g/ha","[1]; Zea mays, post-emergence, 125 g ai/ha, scale 0 to 100 (0 no effect, 100 complete control), read-out: Corn plant response rating",60%
same,pest or weed control at 31 g/ha,"[2]; Stellaria media, post-emergence, 31 g ai/ha, read-out: Plant response rating (scale of 0 to 100), Chickweed",45%
same,pest or weed control at 62 g/ha,"[2]; Stellaria media, post-emergence, 62 g ai/ha, read-out: Plant response rating (scale of 0 to 100), Chickweed",50%
same,pest or weed control at 125 g/ha,"[2]; Stellaria media, post-emergence, 125 g ai/ha, scale 0 to 100 (0 no effect, 100 complete control), read-out: Chickweed plant response rating",95%
same,Barnyardgrass plant response rating,[3]; 32 g ai/ha,0
same,Barnyardgrass plant response rating,[3]; 64 g ai/ha,0
same,Barnyardgrass plant response rating,[3]; 125 g ai/ha,0
same,Barnyardgrass plant response rating,[3]; 250 g ai/ha,0
same,"Plant response rating, Barnyardgrass",[3],0
same,"Sprangletop, Brdd. plant response rating",[4]; 32 g ai/ha,0
same,"Sprangletop, Brdd. plant response rating",[4]; 64 g ai/ha,0
same,"Sprangletop, Brdd. plant response rating",[4]; 125 g ai/ha,20
same,"Sprangletop, Brdd. plant response rating",[4]; 250 g ai/ha,40
same,"Plant response rating, Sprangletop, Brdd.",[4]; 16 g ai/ha,0
same,Ducksalad plant response rating,[5]; 32 g ai/ha,100
same,Ducksalad plant response rating,[5]; 64 g ai/ha,100
same,Ducksalad plant response rating,[5]; 125 g ai/ha,100
same,Ducksalad plant response rating,[5]; 250 g ai/ha,100
same,"Plant response rating, Ducksalad",[5],100
same,"Watergrass, Early plant response rating",[6]; 32 g ai/ha,0
same,"Watergrass, Early plant response rating",[6]; 64 g ai/ha,0
same,"Watergrass, Early plant response rating",[6]; 125 g ai/ha,0
same,"Watergrass, Early plant response rating",[6]; 250 g ai/ha,0
same,"Plant response rating, Watergrass, Early",[6]; 16 g ai/ha,0
same,Junglerice plant response rating,[7]; 32 g ai/ha,0
same,Junglerice plant response rating,[7]; 64 g ai/ha,0
same,Junglerice plant response rating,[7]; 125 g ai/ha,0
same,Junglerice plant response rating,[7]; 250 g ai/ha,0
same,"Plant response rating, Junglerice",[7]; 16 g ai/ha,0
same,Redstem plant response rating,[8]; 32 g ai/ha,65
same,Redstem plant response rating,[8]; 64 g ai/ha,75
same,Redstem plant response rating,[8]; 125 g ai/ha,100
same,Redstem plant response rating,[8]; 250 g ai/ha,100
same,"Plant response rating, Redstem",[8]; 16 g ai/ha,0
same,"Flatsedge, Rice plant response rating",[9]; 32 g ai/ha,100
same,"Flatsedge, Rice plant response rating",[9]; 64 g ai/ha,100
same,"Flatsedge, Rice plant response rating",[9]; 125 g ai/ha,100
same,"Flatsedge, Rice plant response rating",[9]; 250 g ai/ha,100
same,"Plant response rating, Flatsedge, Rice",[9]; 16 g ai/ha,100
same,"Rice, Transplanted plant response rating",[10]; 32 g ai/ha,0
same,"Rice, Transplanted plant response rating",[10]; 64 g ai/ha,10
same,"Rice, Transplanted plant response rating",[10]; 125 g ai/ha,10
same,"Rice, Transplanted plant response rating",[10]; 250 g ai/ha,20
same,"Plant response rating, Rice, Transplanted",[10]; 16 g ai/ha,0
same,"Rice, Water Seeded plant response rating",[11]; 32 g ai/ha,0
same,"Rice, Water Seeded plant response rating",[11]; 125 g ai/ha,10
same,"Rice, Water Seeded plant response rating",[11]; 250 g ai/ha,10
same,"Plant response rating, Rice, Water Seeded",[11]; 16 g ai/ha,0
CCOC(=O)c1nc(-c2ccc(I)cc2)nc(N)c1Cl [Compound 133],"Plant response rating (scale of 0 to 100), Corn",[1]; 16 g ai/ha,35
same,"Plant response rating (scale of 0 to 100), Corn",[1]; 31 g ai/ha,40
same,"Plant response rating (scale of 0 to 100), Corn",[1]; 62 g ai/ha,60
same,Corn plant response rating,[1]; [12],80
same,"Plant response rating (scale of 0 to 100), Chickweed",[2]; 16 g ai/ha,0
same,"Plant response rating (scale of 0 to 100), Chickweed",[2]; 31 g ai/ha,10
same,"Plant response rating (scale of 0 to 100), Chickweed",[2]; 62 g ai/ha,20
same,Chickweed plant response rating,[2]; [12],45
same,Barnyardgrass plant response rating,[3]; 32 g ai/ha,0
same,Barnyardgrass plant response rating,[3]; 64 g ai/ha,0
same,Barnyardgrass plant response rating,[3]; 125 g ai/ha,0
same,Barnyardgrass plant response rating,[3]; 250 g ai/ha,0
same,"Plant response rating, Barnyardgrass",[3],0
same,"Sprangletop, Brdd. plant response rating",[4]; 64 g ai/ha,0
same,"Sprangletop, Brdd. plant response rating",[4]; 125 g ai/ha,0
same,"Sprangletop, Brdd. plant response rating",[4]; 250 g ai/ha,0
same,"Plant response rating, Sprangletop, Brdd.",[4]; 16 g ai/ha,0
same,"Plant response rating, Sprangletop, Brdd.",[4]; 32 g ai/ha,0
same,Ducksalad plant response rating,[5]; 32 g ai/ha,100
same,Ducksalad plant response rating,[5]; 64 g ai/ha,100
same,Ducksalad plant response rating,[5]; 125 g ai/ha,100
same,Ducksalad plant response rating,[5]; 250 g ai/ha,100
same,"Plant response rating, Ducksalad",[5],100
same,"Watergrass, Early plant response rating",[6]; 64 g ai/ha,0
same,"Watergrass, Early plant response rating",[6]; 125 g ai/ha,0
same,"Watergrass, Early plant response rating",[6]; 250 g ai/ha,0
same,"Plant response rating, Watergrass, Early",[6]; 16 g ai/ha,0
same,"Plant response rating, Watergrass, Early",[6]; 32 g ai/ha,0
same,Junglerice plant response rating,[7]; 64 g ai/ha,0
same,Junglerice plant response rating,[7]; 125 g ai/ha,0
same,Junglerice plant response rating,[7]; 250 g ai/ha,0
same,"Plant response rating, Junglerice",[7]; 16 g ai/ha,0
same,"Plant response rating, Junglerice",[7]; 32 g ai/ha,0
same,Redstem plant response rating,[8]; 64 g ai/ha,65
same,Redstem plant response rating,[8]; 125 g ai/ha,75
same,Redstem plant response rating,[8]; 250 g ai/ha,85
same,"Plant response rating, Redstem",[8]; 16 g ai/ha,0
same,"Plant response rating, Redstem",[8]; 32 g ai/ha,20
same,"Flatsedge, Rice plant response rating",[9]; 64 g ai/ha,95
same,"Flatsedge, Rice plant response rating",[9]; 125 g ai/ha,95
same,"Flatsedge, Rice plant response rating",[9]; 250 g ai/ha,100
same,"Plant response rating, Flatsedge, Rice",[9]; 16 g ai/ha,30
same,"Plant response rating, Flatsedge, Rice",[9]; 32 g ai/ha,65
same,"Rice, Transplanted plant response rating",[10]; 64 g ai/ha,0
same,"Rice, Transplanted plant response rating",[10]; 125 g ai/ha,0
same,"Rice, Transplanted plant response rating",[10]; 250 g ai/ha,0
same,"Plant response rating, Rice, Transplanted",[10]; 16 g ai/ha,0
same,"Plant response rating, Rice, Transplanted",[10]; 32 g ai/ha,0
same,"Rice, Water Seeded plant response rating",[11]; 64 g ai/ha,0
same,"Rice, Water Seeded plant response rating",[11]; 125 g ai/ha,0
same,"Rice, Water Seeded plant response rating",[11]; 250 g ai/ha,35
same,"Plant response rating, Rice, Water Seeded",[11]; 16 g ai/ha,0
same,"Plant response rating, Rice, Water Seeded",[11]; 32 g ai/ha,0
